# Test results: US7452523B2 (priority 2004, dated 2008)
# Read-outs that look alike come from different tables or passages of the source.
# Assays:
# [1] = test system: mild to moderate asthma patients; conditions: for incidence of oropharyngeal numbing, noted at least once: 12 week study
# [2] = test system: patients suffering from cough
# [3] = test system: cough responses in guinea pigs; conditions: cited from earlier work
# [4] = test system: patient with persistent refractory tussive syncope; conditions: 1 ml of 1% nebulized every 4 hours for 10 days, with other anti-tussive drugs; cited from earlier work
# chronic refractory cough = conditions: 3 ml of 1% nebulized twice a day 6-10 weeks, with other drugs; cited from earlier work
# [5] = test system: persistent cough after stellate ganglion block; conditions: 1 ml of 2% in 2 ml normal saline, nebulized; cited from earlier work
# cough [6] = conditions: nebulized before fibreoptic bronchoscopy; cited from earlier work
# capsaicin-induced cough = conditions: lignocaine 20 mg, alone or with adrenaline; cited from earlier work
# cough [7] = conditions: cited from earlier work
# cough [8] = conditions: cited from earlier work; remark: listed apart in the source
smiles,measurement,setting,value
"CCN(CC)CC(=O)Nc1c(C)cccc1C [lidocaine, acetamide 2-(diethylamino)-N-(2,6-dimethylphenyl)]",patients with one or more respiratory AEs,[1]; 10 mg (16/55),29%
same,"incidence of oropharyngeal numbing, noted at least once",[1]; 10 mg (22/55),40%
same,patients with at least one adverse event,"[1]; 10 mg twice daily, 12 weeks (39/55)",71%
same,"incidence of oropharyngeal numbing, noted at least once",[1]; 40 mg (16/51),31.45%
same,patients with one or more respiratory AEs,[1]; 40 mg (18/51),35%
same,patients with at least one adverse event,"[1]; 40 mg twice daily, 12 weeks (33/51)",65%
same,lung deposition of lidocaine,[1]; compared with previous delivery,increased two- to three-fold
same,loss of gag reflex,"[1]; human, in vivo",No loss of gag reflex
same,reports of bronchospasm upon lidocaine delivery,"[1]; human, in vivo",no reports of bronchospasm
same,tracheal aspiration of food or liquid,"[1]; human, in vivo",No case
same,"symptoms of cough patients sensitive to smoke, dust, airway pollution",[2]; 10 mg or 40 mg inhaled twice daily,substantial improvement of their symptoms
same,suppression of severe chronic cough,"[2]; 16 mg lung dose delivered as 40 mg/1 ml saline, less than 2 minutes",very efficacious
same,"cough in cystic fibrosis, bronchiectasis or other suppurative pulmonary disease",[2]; aerosolized,successful in suppressing the cough
same,tolerability and safety of aerosol,[2]; formulation pH between 5.5 and 7.0,well tolerated and safe
same,efficacy in seasonal non-severe cough,[2]; three mg delivered to the lung,efficacious
same,total number of coughs induced by capsaicin,[3]; 10 to 30 mg/ml,reduced the total number of coughs
same,onset of the first cough,[3]; aerosol 0.1 to 10 mg/ml,delay onset of the first cough
same,time course of cough responses,[3]; aerosol 0.1 to 10 mg/ml,no significant effect
same,total number of coughs,[3]; aerosol 0.1 to 10 mg/ml,reduce the total number of coughs
same,syncopal episodes,[4],able to resolve syncopal episodes
same,treatment of refractory cough,chronic refractory cough,effective
same,treatment of persistent cough,[5],Treatment was achieved
same,time to cough suppression,cough [6],10 to 15 min
same,coughing,capsaicin-induced cough,significantly reduced coughing
same,anesthesia of oropharynx,"cough [7]; 10 ml of 4%, about 30 minutes",substantial anesthesia of oropharynx
same,duration of cough suppression,"cough [7]; after the first treatment, 10 ml of 4%",about 9 weeks
same,duration of cough suppression,cough [7]; after the second administration,7.5 weeks
same,cough,"cough [8]; 10 to 20 mg every 4-6 hours, albuterol pretreatment",abolished cough
same,bronchoconstriction,cough [8]; 10 to 20 mg every 4-6 hours,not bronchoconstriction
same,bronchospasm on administration,cough [8]; in vivo,triggers bronchospasm
